Our source for the Activity values is ChEMBL document CHEMBL3400013, “Synthesis and biological activity evaluation of hydrazone derivatives based on a Tröger's base skeleton” (Bioorg Med Chem, 2015).

The source made the active and inactive calls. The rule behind the calls is not given here.

The test system of this assay is Mycobacterium tuberculosis. As to the kind of experiment: Antimicrobial activity against Mycobacterium bovis BCG up to 100 uM after 24 to 48 hrs by broth microdilution method. The class given is functional, organism-based. Conditions: variant bovis BCG.

`COc1cccnc1/C=N/NC(=O)c1ccc2c3c(ccc2c1)N1Cc2c(ccc4cc(C(=O)N/N=C/c5ncccc5OC)ccc24)N(C3)C1`: the outcome was inactive.

As for `COC(=O)c1ccc(O)c(/C=N/NC(=O)c2ccc3c4c(ccc3c2)N2Cc3c(ccc5cc(C(=O)N/N=C/c6cc(C(=O)OC)ccc6O)ccc35)N(C4)C2)c1`, the result was inactive.

Regarding `COc1ccc(O)c(/C=N/NC(=O)c2ccc3c4c(ccc3c2)N2Cc3c(ccc5cc(C(=O)N/N=C/c6cc(OC)ccc6O)ccc35)N(C4)C2)c1`, the outcome was inactive.

As to `Cc1ccc(O)c(/C=N/NC(=O)c2ccc3c4c(ccc3c2)N2Cc3c(ccc5cc(C(=O)N/N=C/c6cc(C)ccc6O)ccc35)N(C4)C2)c1`, the outcome was inactive.

For the molecule `O=C(N/N=C/c1cc([N+](=O)[O-])ccc1O)c1ccc2c3c(ccc2c1)N1Cc2c(ccc4cc(C(=O)N/N=C/c5cc([N+](=O)[O-])ccc5O)ccc24)N(C3)C1`, the result was inactive.

For `O=C(N/N=C/c1ccccc1O)c1ccc2c3c(ccc2c1)N1Cc2c(ccc4cc(C(=O)N/N=C/c5ccccc5O)ccc24)N(C3)C1`, the result was inactive.

Take `O=C(NN=C(c1ccccn1)c1ccccn1)c1ccc2c3c(ccc2c1)N1Cc2c(ccc4cc(C(=O)NN=C(c5ccccn5)c5ccccn5)ccc24)N(C3)C1`: the result was inactive.

As to `O=C(N/N=C/c1cc(F)ccc1O)c1ccc2c3c(ccc2c1)N1Cc2c(ccc4cc(C(=O)N/N=C/c5cc(F)ccc5O)ccc24)N(C3)C1`, the outcome was inactive.

Turning to `O=C(N/N=C/c1cc(O)ccc1O)c1ccc2c3c(ccc2c1)N1Cc2c(ccc4cc(C(=O)N/N=C/c5cc(O)ccc5O)ccc24)N(C3)C1`, the outcome was inactive.

`O=C(N/N=C/c1cc(Cl)ccc1O)c1ccc2c3c(ccc2c1)N1Cc2c(ccc4cc(C(=O)N/N=C/c5cc(Cl)ccc5O)ccc24)N(C3)C1`: the outcome was inactive.

Consider `O=C(N/N=C/c1nccc2ccccc12)c1ccc2c3c(ccc2c1)N1Cc2c(ccc4cc(C(=O)N/N=C/c5nccc6ccccc56)ccc24)N(C3)C1`, for which the result was inactive.
